Experimental data published in patent US10828372B2, “Compositions and methods for the inhibition of fibrosis” (WISCONSIN ALUMNI RESEARCH FOUNDATION, priority 2017, dated 2020).
“And” between values parts separate entries of the source, which are not always exact repeats. Identical values can stand only once. Where no end group is shown, it is not given here.

Legend:
[1] = system: Alexa 488-labeled human plasma FN; assay: Matrix Assembly in vitro Assay (MAA), A488-FN deposition by AH1F fibroblasts; format: cell-based; settings: 24 hours, viability-normalized fluorescence, n=4, FUD run alongside each conjugate
Description: Matrix Assembly Assay: The matrix assembly assay was conducted in the 96-well plate format as described in the art. AH1F human skin fibroblast cells resuspended in 2% fetal bovine serum were added to each well for a density of 60,000 cells per well. A 1 hr incubation period at 37° C. followed to allow cell adhesion and spreading. FUD, PEG-FUD, or PEG-mFUD were added to each well following incubation. Immediately, Alexa Fluor® 488 fluorescence labeled human plasma fibronectin (A488-FN) was then added to each well for a final FN concentration of 11 μg/mL. The cells were then incubated for 24 hours at 37° C. Non-assembled FN was removed from each well by washing with Hank's Balanced Salt Solution (HBSS) containing Ca^2+ and Mg^2+. The well volume was restored to 60 μL with HBSS and a fluorescence reading from the bottom of each well was taken using a Synergy™ H1 (Biotek) plate reader (excitation: 485 nm, Emission: 538 nm). Cell viability was quantified using CellTiter-Glo® cell viability assay using the manufacturer's protocol. A 30 μL aliquot of HBSS was removed from each well and was replaced with 30 μL of the luminescence reagent prepared shortly beforehand. Luminescence was quantified using the same plate reader. The average of fluorescence values of a no A488FN or inhibitor control group were routinely subtracted from the readings of each well and were normalized using each well's corresponding luminescence value. Lastly, the cell viability normalized fluorescence values were expressed as a percentage of the 0 nM drug control group. The final results were processed using Graphpad Prism 7.0 software. IC50 values were extracted using a four-parameter dose-response curve function. Student's t test was used to determine significance of differences among peptides at a given drug concentration.
The PEG-FUD FN fibrillogenesis inhibitory performance was evaluated in vitro using the matrix assembly assay (MAA). The methodology of this assay is depicted in FIG. 8. The MAA quantifies ECM deposition of exogenous AlexaFluor® 488-labeled FN (A488FN) by a confluent monolayer of fibroblasts after an incubation period by measuring fluorescence of deposited FN. In this study, the performance of PEG-FUD peptides was compared to that of FUD and the PEG-mFUD control peptide using the AH1F human foreskin fibroblast cell line.

[2] = Bleomycin model: PEG-FUD organ accumulation (Western blot, ex vivo fluorescence imaging); format: in vivo, mouse; settings: day 3-13 s.c. injection, bleomycin-injured vs uninjured (NS) lungs
Description: Separately, on day three post-bleomycin treatment, another animal set was treated with a single SC dose of PEG-FUD mixed with 25% Cy5-fluorophore labeled PEG-FUD or fully unlabeled PEG-FUD control (12.5 mg/kg). These mice were sacrificed seven days post-bleomycin treatment and their lungs, kidneys and livers imaged ex vivo using the fluorescence protocol on In Vivo Imaging System.
Western blot: Homogenized lung tissue was lysed for protein using 5% SDS/5 M Urea lysing buffer. The lysates were sonicated and boiled for 5 min prior to being subject to electrophoresis on polyacrylamide gels at 400 V for 2 hours and transferred at 100 V for 2.5 hours. Membranes were blotted with in-house made anti-FUD antibody produced in rabbit (0.7 μg/ml suspended in 2% bovine serum albumin) or β-actin housekeeping antibody produced in mouse (Sigma-Aldrich, 2 μg/ml suspended in 2% bovine serum albumin) and corresponding HRP-conjugated secondary antibody (1:3000). Blots were developed using an enhanced chemiluminescence (ECL) reaction (GE) and imaged on GE LAS4000 chemiluminescence imager to obtain images below the saturated threshold. […]
In Vivo Imaging System: Lungs, livers and kidneys of mice treated with bleomycin or NS and a single dose of SC Cy5-PEG-FUD or unlabeled PEG-FUD were imaged using the fluorescence protocol in the In Vivo Imaging System. […]

Chain of Alexa 488-labeled human plasma FN (P02751 32-608 limits assumed): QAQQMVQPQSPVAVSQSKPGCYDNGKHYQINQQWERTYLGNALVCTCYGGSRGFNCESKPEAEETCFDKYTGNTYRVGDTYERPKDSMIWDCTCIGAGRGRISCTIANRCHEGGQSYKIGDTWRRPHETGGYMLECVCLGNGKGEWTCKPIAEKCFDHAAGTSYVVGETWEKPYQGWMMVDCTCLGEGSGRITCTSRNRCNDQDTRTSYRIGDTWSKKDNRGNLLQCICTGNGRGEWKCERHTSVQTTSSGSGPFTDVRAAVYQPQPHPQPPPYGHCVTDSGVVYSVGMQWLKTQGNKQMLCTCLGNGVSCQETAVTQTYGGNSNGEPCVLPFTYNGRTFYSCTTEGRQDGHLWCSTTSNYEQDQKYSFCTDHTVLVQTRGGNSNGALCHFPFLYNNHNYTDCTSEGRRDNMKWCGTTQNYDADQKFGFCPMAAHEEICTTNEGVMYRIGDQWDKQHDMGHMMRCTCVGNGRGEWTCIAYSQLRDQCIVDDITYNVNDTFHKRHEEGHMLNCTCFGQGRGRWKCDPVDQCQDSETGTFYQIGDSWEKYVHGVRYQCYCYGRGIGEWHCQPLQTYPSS

Substance	IC50 [1]	PEG-FUD accumulation in lungs (Western blot) [2]
FUD: 49 amino acid FUD peptide, SEQ ID NO: 1, recombinantly expressed, His-tag removed; inhibitor of fibronectin fibrillogenesis (KDQSPLAGESGETEYITEVYGNQQNPVDIDKKLPNETGFSGNMVETEDT; human) [reference compound]	13 nM and 26 nM and 19 nM	
PEG-FUD: PEGylated FUD prepared as in Example 1, PEG size not stated; approximately 27 kDa by mass spectrometry, likely the 20 kDa conjugate (KDQSPLAGESGETEYITEVYGNQQNPVDIDKKLPNETGFSGNMVETEDT; not fully specified (N-terminus); also: PEG size not given here)		striking increase in PEG-FUD accumulation in bleomycin-injured lungs
